# Data as given in US9655362B2, “Fungicidal composition and method for controlling plant diseases” (ISHIHARA SANGYO KAISHA, LTD., priority 2003, dated 2017).
# Several values for one entry are separate records, joined by “and”; a condition that tells them apart may be missing. Identical values can stand only once.
# Legend:
# Erysiphe graminis = test: Test on preventive effect against wheat powdery mildew; assay type: in vivo; design: key: % = treated/untreated average lesion area ×100
# Procedure: Wheat (cultivar: […] After the chemical solution dried, conidia of Erysiphe graminis were dusted and inoculated and maintained in a constant temperature chamber at 20° C. […] The average lesion area in the non-treated plot was determined in the same manner as for the treated plot except that water was applied by a spray gun instead of the chemical solution. Disease rate=(a/b)×100 a: average lesion area in the treated plot b: average lesion area in the non-treated plot Theoretical values were calculated in accordance with the Colby's formula. The fungicidal composition of the present invention has a synergistic effect regarding the test on preventive effect against wheat powdery mildew, when the experimental value is lower than the theoretical value.
# Sphaerotheca cucurbitae = test: Test on preventive effect against cucumber powdery mildew; assay type: in vivo; design: scale not given here
# Procedure: Cucumber (cultivar: Suyo) was cultivated in a plastic pot having a diameter of 7.5 cm, and when it reached 1.5-leaf stage, 10 ml of a chemical solution having the compound of the present invention adjusted to a prescribed concentration, was applied by a spray gun. After the chemical solution dried, a suspension of conidia of Sphaerotheca cucurbitae was sprayed and inoculated and maintained in a constant temperature chamber at 20° C. From 6 to 11 days after the inoculation, the area of sporulation was investigated, and the disease rate was determined in the same manner as in Test Example 3, and the results are shown in Tables 54 to 96. The average lesion area in the non-treated plot was determined in the same manner as for the treated plot except that water was applied by a spray gun instead of the chemical solution.
# Further, theoretical values by the Colby's formula are shown in brackets in Tables 54 to 96.
# [1] = Compound No. alone, concentration 16 ppm
# [2] = single agent, 4 ppm, area of sporulation 6 to 11 days after inoculation
# [3] = single agent, 8 ppm, area of sporulation 6 to 11 days after inoculation
# [4] = other fungicide alone, concentration 31 ppm
# [5] = other fungicide alone, concentration 63 ppm
# [6] = single agent, 1 ppm, area of sporulation 6 to 11 days after inoculation
# [7] = single agent, 2 ppm, area of sporulation 6 to 11 days after inoculation
# [8] = other fungicide alone, concentration 8 ppm
# [9] = other fungicide alone, dose 12.5 g/ha
# [10] = other fungicide alone, dose 1.6 g/ha
# [11] = other fungicide alone, dose 3.1 g/ha
# [12] = other fungicide alone, dose 6.3 g/ha
# [13] = other fungicide alone, concentration 4 ppm
# [14] = other fungicide alone, concentration 16 ppm
# [15] = other fungicide alone, concentration 2 ppm
molecule,measurement,setting,value
"COc1cc(C)c(C(=O)c2c(F)ncc(C)c2I)c(OC)c1OC [Compound No. 18, 3-(2,3,4-trimethoxy-6-methylbenzoyl)-2-fluoro-4-iodo-5-methylpyridine]",melting point,,140 to 141 °C
CC(Cc1ccc(C(C)(C)C)cc1)CN1C[C@@H](C)O[C@@H](C)C1 (some centres unmarked) [Fenpropimorph],Disease rate,"Erysiphe graminis; other fungicide alone, dose 25 g/ha",100
"COc1cc(C)c(C(=O)c2c(Cl)cnc(Cl)c2C(F)(F)F)c(OC)c1OC [Compound No. 39, 4-(2,3,4-trimethoxy-6-methylbenzoyl)-2,5-dichloro-3-trifluoromethylpyridine]",Disease rate,"Erysiphe graminis; Compound No. alone, dose 1.6 g/ha",58.8
same,Disease rate,Sphaerotheca cucurbitae; [1],20
same,Disease rate,Sphaerotheca cucurbitae; [2],32.0
same,Disease rate,Sphaerotheca cucurbitae; [3],14.2
same,melting point,,106 to 109 °C
Cc1ccc(-c2c(Cl)nc(C#N)n2S(=O)(=O)N(C)C)cc1 [Cyazofamid],Disease rate,Sphaerotheca cucurbitae; [4],100
same,Disease rate,Sphaerotheca cucurbitae; [5],100
Polyoxins,Disease rate,Sphaerotheca cucurbitae; [4],100 and 80.4 and 80.0
"COc1cc(C)c(C(=O)c2c(OC)cnc(Cl)c2C(F)(F)F)c(OC)c1OC [Compound No. 40, 4-(2,3,4-trimethoxy-6-methylbenzoyl)-2-chloro-3-trifluoromethyl-5-methoxypyridine]",Disease rate,Sphaerotheca cucurbitae; [6],71.0
same,Disease rate,Sphaerotheca cucurbitae; [7],42.6
same,melting point,,117 to 119 °C
Clc1ccc(CSC(Cn2cncn2)=Nc2ccc(Cl)cc2Cl)cc1 [Imibenconazole],Disease rate,Sphaerotheca cucurbitae; [8],100
CC(C1CC1)C(O)(Cn1cncn1)c1ccc(Cl)cc1 (centres unmarked) [Cyproconazole],Disease rate,Erysiphe graminis; [9],15.0
CO/C=C(/C(=O)OC)c1ccccc1Oc1cc(Oc2ccccc2C#N)ncn1 [Azoxystrobin],Disease rate,Sphaerotheca cucurbitae; [4],100 and 80.4
same,Disease rate,Sphaerotheca cucurbitae; [5],100
same,Disease rate,"Sphaerotheca cucurbitae; other fungicide alone, concentration 125 ppm",100
"COc1cc(C)c(C(=O)c2c(OC)ncc(Cl)c2C)c(OC)c1OC [Compound No. 35, 3-(2,3,4-trimethoxy-6-methylbenzoyl)-5-chloro-2-methoxy-4-methylpyridine]",Disease rate,Sphaerotheca cucurbitae; [1],80.4
same,Disease rate,Sphaerotheca cucurbitae; [6],56.8
same,Disease rate,Sphaerotheca cucurbitae; [7],14.2
Fc1ccc([C@]2(Cn3cncn3)O[C@H]2c2ccccc2Cl)cc1 (racemic) [Epoxiconazole],Disease rate,Erysiphe graminis; [10],100
COc1cc(C)c(C(=O)c2c(OC)ccc(Br)c2C)c(OC)c1OC [Metrafenone],Disease rate,Erysiphe graminis; [11],100
same,Disease rate,Erysiphe graminis; [12],80.0
same,Disease rate,Erysiphe graminis; [9],60.0
CCCCCCCCCCCCc1ccc(S(=O)(=O)O)cc1.CCCCCCCCCCCCc1ccc(S(=O)(=O)O)cc1.CCCCCCCCCCCCc1ccc(S(=O)(=O)O)cc1.NC(N)=NCCCCCCCCNCCCCCCCCN=C(N)N [Iminoctadine albesilate],Disease rate,Sphaerotheca cucurbitae; [13],85.9 and 93.8
same,Disease rate,Sphaerotheca cucurbitae; [8],83.9 and 60.7 and 45.0
same,Disease rate,Sphaerotheca cucurbitae; [14],35.3 and 30.0 and 49.4
O=c1c2cc(F)ccc2nc(-n2cncn2)n1-c1ccc(Cl)cc1Cl [Fluquinconazole],Disease rate,"Erysiphe graminis; other fungicide alone, dose 50 g/ha",30.0
same,Disease rate,"Erysiphe graminis; other fungicide alone, dose 200 g/ha",7.5
same,Disease rate,"Erysiphe graminis; other fungicide alone, dose 400 g/ha",2.5
"COc1cc(C)c(C(=O)c2c(OC)ncc(Br)c2Cl)c(OC)c1OC [Compound No. 23, 3-(2,3,4-trimethoxy-6-methylbenzoyl)-5-bromo-4-chloro-2-methoxypyridine]",Disease rate,"Sphaerotheca cucurbitae; Compound No. alone, concentration 2 ppm",100
same,Disease rate,Sphaerotheca cucurbitae; [1],30.7
same,Disease rate,Sphaerotheca cucurbitae; [2],79.2
same,Disease rate,Sphaerotheca cucurbitae; [3],19.8
same,Disease rate,"Sphaerotheca cucurbitae; single agent, 16 ppm, area of sporulation 6 to 11 days after inoculation",2.4
same,melting point,,84 to 87 °C
CC(C)(C)C(O)(CCc1ccc(Cl)cc1)Cn1cncn1 (centres unmarked) [Tebuconazole],Disease rate,Sphaerotheca cucurbitae; [15],56.8
same,Disease rate,Sphaerotheca cucurbitae; [13],71.0
CCCC1COC(Cn2cncn2)(c2ccc(Cl)cc2Cl)O1 (centres unmarked) [Propiconazole],Disease rate,Erysiphe graminis; [11],100
same,Disease rate,Erysiphe graminis; [9],11.6
CC1(C)COC(C)(CCCc2ccc(Cl)cc2)N1C(=O)n1ccnc1 (centres unmarked) [Oxpoconazole],Disease rate,Sphaerotheca cucurbitae; [3],44.5
CC1(C)CCC(Cc2ccc(Cl)cc2)C1(O)Cn1cncn1 (centres unmarked) [Metconazole],Disease rate,Erysiphe graminis; [10],44.1
same,Disease rate,Erysiphe graminis; [11],19.6
same,Disease rate,Erysiphe graminis; [12],4.9
CC1(C)COC(C)(CCCc2ccc(Cl)cc2)N1C(=O)n1ccnc1.CC1(C)COC(C)(CCCc2ccc(Cl)cc2)N1C(=O)n1ccnc1.O=C(O)/C=C/C(=O)O (centres unmarked) [Oxpoconazole fumarate],Disease rate,Sphaerotheca cucurbitae; [8],100 and 80.0
same,Disease rate,Sphaerotheca cucurbitae; [14],100 and 60.0
same,Disease rate,Sphaerotheca cucurbitae; [4],45.5 and 30.0
CC(C)(C)C(O)C(Oc1ccc(Cl)cc1)n1cncn1 (centres unmarked) [Triadimenol],Disease rate,Erysiphe graminis; [11],65
same,Disease rate,Erysiphe graminis; [9],19.0
"COc1cc(C)c(C(=O)c2c(OC)cncc2C(F)(F)F)c(OC)c1OC [Compound No. 122, 4-(2,3,4-trimethoxy-6-methylbenzoyl)-3-methoxy-5-trifluoromethylpyridine]",melting point,,103 to 106 °C
FC(F)C(F)(F)OCC(Cn1cncn1)c1ccc(Cl)cc1Cl (centres unmarked) [Tetraconazole],Disease rate,Erysiphe graminis; [11],80.0
same,Disease rate,Erysiphe graminis; [12],35.0
same,Disease rate,Sphaerotheca cucurbitae; [15],56.8
same,Disease rate,Sphaerotheca cucurbitae; [13],56.8
CC#Cc1cc(C)nc(Nc2ccccc2)n1 [Mepanipyrim],Disease rate,Sphaerotheca cucurbitae; [8],100
